Laboratory results as given in patent US7071218B2, “N-substituted heterocycles for the treatment of hypercholesteremia, dyslipidemia and other metabolic disorders; cancer, and other diseases” (Incyte San Diego Incorporated, priority 2001, dated 2006).

Tests used:
[1] = test system: PC-3 prostate cancer cells; test: MTT anti-cancer assay, PC-3 prostate cancer cells; assay type: cell-based, human; details: PC-3, 6 days
Excerpt: (§1) The anti-cancer activity of the compounds of the invention herein have been tested in in vitro assays using a microculture assay with 3-(4,5-dimethylthiazol-2-yl)-2,5-diphenyltetrazolium bromide (“MTT”) a test well known to those skilled in the art. This assay has an advantage over in vivo assay in that results are obtained within a week as opposed to several months. The assay can be carried out in 96-well microtiter plates. The MTT assay is based on the production of a dark blue formazan product by dehydrogenase in the mitochondria of live tumor cells after exposure to drug for 6 days [M. C. […] Thus, only live cells are stained and can be measured at 595 nm. […]
(§2) Treatment: Before commencing drug treatment, cells were replenished with media containing 0.5% FCS. […] As an end point, the amount of surviving cells (Live cells) was measured using a standard […] assay (MTT based), and calculated as percentage of cells treated with vehicle (DMSO) alone (% control).
(§3) MTT assay: The assay is based on the cleavage of the yellow tetrazolium salt MTT to purple formazan crystals by dehydrogenase activity in active mitochondria. […] The formazan crystals formed are solubilized and the resulting colored solution is quantified using a scanning multiwell spectrophotometer. […]

[2] = test system: human cancer cell lines (A549, MDA-MB-468, PC-3, Bx-PC3); test: MTT anti-cancer assay, the other cancer cell lines of the panel; assay type: cell-based; details: cell lines other than PC-3 (A549, MDA-MB-468, Bx-PC3), compared to PC-3
Excerpt: as §1, §2, §3

## COc1cccc(/C=C2\SC(=S)N(CC(=O)O)C2=O)c1-c1cc2c(cc1C)C(C)(C)CCC2(C)C [Compound 9, {5-[3-Methoxy-2-(3,5,5,8,8-pentamethyl-5,6,7,8-tetrahydro-naphthalen-2-yl)-benzylidene]4-oxo-2-thioxo-thiazolidin-3-yl}-acetic acid]
[1]
  anticancer effect: very potent anticancer effect
[2]
  anticancer effect: less pronounced
